# Data reported in patent US9533002B2, “Methods of treating a metabolic syndrome by modulating heat shock protein (HSP) 90-β” (Berg LLC, priority 2012, dated 2017).
# Entries after “also recorded” stand apart in the source; their conditions may differ.
# Columns and labels:
# HSMM myotubes [1] = experiment: Seahorse bioenergetic profiling of myotubes (OCR; oligomycin, CCCP, rotenone); format: cell-based, human
# Description: HSMM myotubes cultured in wells in a Seahorse® assay cartridge were differentiated with 2% horse serum myocyte differentiation media for 7 days. Cells were transfected with either negative control scrambled siRNA or siHsp siRNA with TKO transfection reagents at concentration of 50 nM following vendor instructions as described above (Mirus Bio®). After 48 hours transfection, cells were subjected to Seahorse® bioenergetics analysis using drugs to modulate cell energetics, i.e., oligomycin, carbonyl cyanide-M-chlorophenyl hydrazine (CCCP), and rotenone. Oligomycin inhibits mitochondrial ATP synthase (complex V of ET chain) and allows analysis of glycolytic capacity. CCCP is an uncoupler that […] the mitochondrial membrane, thereby inducing maximum compensatory oxygen consumption, and allows analysis of uncoupled OCR. Rotenone inhibits NADH dehydrogenase (complex I of ET chain) and allows analysis of non-mitochondrial OCR.
# To perform the assay, each well of the Seahorse® assay cartridge was washed with 1 ml running media. 500 ul of running media was added to each well and the plate was placed in an 37° C. (CO2 free) incubator. Drugs to modulate mitochondrial activity were prepared at a 10× (10 uM) concentration, so that after addition to the cartridge, the final concentration would be 1× (1 μM). Oligomycin (50 ul), CCCP (55 ul) and rotenone (55 ul) were added to ports A, B, and C of the cartridge and the cartridge was placed back in the incubator. The Seahorse® assay wizard was opened and the cycle parameters and times were setup. The Seahorse® assay was then performed using the instrument. After the Seahorse® assay, cells were lysed with 50 ul 450 mM NaOH and then neutralized with 5 ul Tris 6.8. DNA lysates were subjected to spectrophotometric analysis at OD260 using BioTek® Take3 DNA plate reader. The data were normalized with DNA contents of the cells.
# HSMM myotubes were transfected with siRNA of either control or siHsp90β for 48 hours as described above, then subjected to Seahorse® bioenergetic profiling (XF24 Analyzer) using different mitochondrial drugs including oligomycin, CCCP, and rotenone; and monitored changes on oxygen consumption rate (OCR) that reflects either basal or maximum mitochondrial oxidative capacity. The results were normalized by DNA content.
# HSMM myotubes [2] = experiment: Insulin signaling in HSMM myotubes: western blot of total and phosphorylated Akt, Erk, GSK3β; format: cell-based, human; settings: myotubes treated with inhibitor, then insulin stimulation
# Description: Human skeletal muscle myoblasts (HSMM) were procured from PromoCell and were cultured in growth media recommended by the vendor. Confluent cultures were replaced with differentiation media (DMEM, 2% horse serum, pyruvate and HEPES) and cells allowed to differentiate for 7 to 10 days.
# Human HSMM myotubes cells that were plated in 12 well plates the previous week were used. The media was aspirated and fresh media with appropriate dilutions of the NC and H3 siRNA for Hsp90 knockdown were added such that the final concentration in the wells of the plate was 100 nM. Mirus TKO transfection reagent was used for transfecting the cells. The plate was then incubated at 37° C. overnight.
# The media was aspirated and the cells were washed off twice—first with warm PBS and second with 0.1% BSA containing growth media. The cells were then serum starved for 2-3 hours in 0.1% differentiation media containing the appropriate inhibitors at 37° C. followed by insulin stimulation for 5 minutes (0, 10, and 100 nM insulin).
# The wells were then washed once with PBS and harvested into 100 μl of RIPA buffer containing protease and phosphatase inhibitors. The plate was placed on ice and, using a cell scraper, the cells were scraped from the plate. […]
# Protein content was estimated by BCA assay and samples were prepared for gel electrophoresis and western blotting as described in subsequent sections. The total volume required to load 10 μg of total protein was calculated. […]
# Visualization of proteins and quantification of western blots was performed as follows. […]
# Each strip of membrane was taken out arranged in a clean flat surface. […] The bands were quantified using the BIORAD® software.
# HSMM myotubes were sequentially (1) transfected with 3 different siRNAs targeting HSP90AB1 for 48 hours, (2) serum starved for 3 hours, and (3) subjected to stimulation of different concentrations of insulin (0, 10, 100 nM). Signaling events downstream of insulin stimulation were assessed by western blotting for levels of total and phosphorylated Akt, Erk, and GSK3β. […]
# [3] = myotubes treated at different concentrations
smiles,measurement,setting,value
CCc1cc(-c2n[nH]c(C)c2-c2ccc3c(c2)OCCO3)c(O)cc1O [CCT018159],CCCP induced uncoupling response on mitochondrial metabolism,"HSMM myotubes [1]; 1 μM, 3 μM, and 10 μM (FIG. 10 legend)",did not have a significant effect
same,CCCP induced OCR,HSMM myotubes [1]; 10 uM,greater suppression
same,uncoupled OCR,"HSMM myotubes [1]; lower concentration, 1 μM",increased
same,basal OCR,HSMM myotubes [1]; [3],no observed change
same,uncoupled OCR (CCCP induced),HSMM myotubes [1]; [3],decreased in a concentration dependent manner
same,level of pERK,HSMM myotubes [2],no change; also recorded: No significant changes
same,level of pGSK3β,HSMM myotubes [2],no change; also recorded: No significant changes
same,insulin stimulated phosphorylation of Akt (phospho-AKT),"HSMM myotubes [2]; higher concentration, 10 uM, vs untreated cultures",significantly enhanced; also recorded: increase
